Data as given in paper PMC3973950, “Synthesis of 5-arylidine amino-1,3,4-thiadiazol-2-[(N-substituted benzyol)]sulphonamides endowed with potent antioxidants and anticancer activity induces growth inhibition in HEK293, BT474 and NCI-H226 cells” (Medicinal Chemistry Research, 2013).

Assays:
[1] = Total antioxidant activity (ABTS radical cation scavenging); assay type: biochemical; conditions: Conc. ± SD; three independent experiments in duplicate; standard trolox; read-out: IC50 inhibitory concentration, ABTS^+ radical
Description: The ability of the test sample to scavenge 2,2′-azinobis-(3-ethylbenzothiazoline-6-sulphonic acid) (ABTS^·+) radical cation was compared with 6-hydroxy-2,5,7,8-tetramethylchroman-2-carboxylic acid (trolox) standard (Chang et al., [2007]; Erel, [2004]; Re et al., [1999]). The ABTS^·+ radical cation was pregenerated by mixing ABTS stock solution (7 mM) with potassium persulphate (2.45 mM) (final concentration) and incubating for 12–16 h in the dark at room temperature until the reaction was complete and the absorbance was stable. The absorbance of the ABTS^·+ solution was equilibrated to 0.70 (±0.02) by diluting with water at room temperature, then 1 mL of solution was mixed with 10 μL of the test sample (0.05–10 mg/mL), and the absorbance was measured at 734 nm after 6 min. All experiments were repeated three times. The percentage inhibition of absorbance was calculated and plotted as a function of the concentration of standard and sample to determine the trolox equivalent antioxidant concentration (TEAC). To calculate the TEAC, the gradient of the plot for the sample was divided by the gradient of the plot for trolox. The IC50 inhibitory concentration (nM/mL) values of tested compounds are depicted in Table 1. The ABTS^·+ radical scavenging activity of the samples was expressed as S%=[(Acontrol-Asample)/Acontrol]×100 where A control is the absorbance of the blank control (ABTS^·+ solution without test sample), and A sample is the absorbance of the test sample.

[2] = Lipid peroxidation inhibitory activity (egg lecithin liposomes, TBA); assay type: biochemical; conditions: Conc. ± SD; standard ascorbic acid; read-out: IC50 inhibitory concentration, Lipid peroxidation
Description: Egg lecithin (3 mg/mL phosphate buffer, pH 7.4) was sonicated in an ultrasonic sonicator for 10 min to ensure proper liposome formation. Test samples or standard, ascorbic acid (100 μL) of different concentrations (10, 20, 30, 40 50 and 100 μg/mL) was added to liposome mixture (1 mL); the control was without test sample. Lipid peroxidation was induced by adding ferric chloride (10 μL, 400 mM) and L-ascorbic acid (10 μL, 200 mM). After incubation for 1 h at 37 °C, the reaction was stopped by adding hydrochloric acid (2 mL, 0.25 N) containing trichloroacetic acid (150 mg/mL), thiobarbituric acid (3.75 mg/mL) and butylated hydroxy anisole (0.50 mg/mL). The reaction mixture was subsequently boiled for 15 min, cooled and centrifuged at 1,000 rpm for 15 min, and the absorbance of the supernatant was measured at 532 nm (Duh and Yen, [1997]). The % inhibition at different concentrations was calculated by the following formula %Inhibition=[1-(Vt/Vc)]×100 where V t = mean absorption of test compound, V c = mean absorption of control.
The IC50 (nM/mL) value was derived from the % inhibition at different concentrations.

[3] = DPPH radical scavenging activity; assay type: biochemical; conditions: Conc. ± SD; standard ascorbic acid; read-out: IC50 inhibitory concentration, DPPH radical
Description: Compounds of SC series were evaluated for their in vitro free radical scavenging activities by 2,2-diphenyl-1-picrylhydrazyl (DPPH) assay method (Blois, [1958]; Shishoo et al., [1999]; Chhajed et al., [2007]). To determine the free radical scavenging activity, a method based on the reduction of a methanolic solution of the coloured DPPH radical was used. To a set of test tubes containing methanol (3 mL), DPPH reagent (2 mg/mL) (50 μL) was added. The initial absorbance was measured. To these test tubes, methanolic solution of different test solutions (1 mg/mL) were added (10–50 μL). Ascorbic acid (0.5 mg/mL) was also added in the concentration of 10, 20, 30, 40, 50 and 100 μL. After 20 min, absorbance was recorded at 516 nm. The experiment was performed in triplicate. The percentage reduction in absorbance was calculated from the initial and final absorbance of each solution (Dhar and Taploo, [1982]).

[4] = In vitro cytotoxicity by MTT assay, HEK 293; assay type: cell-based, human; conditions: human, HEK 293 cells, read-out: % cytotoxicity (100 − % cell survival) of HEK 293 cell line
Summary of the method: (§1)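 RPMI-1640, 10 % newborn calf serum; ~10,000 cells/well, 24 h attachment; compound 72 h, 37 °C, 5 % CO2; MTT 4 h; propanol; A490.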

[5] = system: BT474 (breast cancer cell line); assay: In vitro cytotoxicity by MTT assay, BT474; assay type: cell-based; conditions: Homo sapiens, 72 h, read-out: % cytotoxicity (100 − % cell survival) of BT474 cell line; for cytotoxicity at 0.005 µM: BT-474, 0.005 μM; for cytotoxicity at 0.015 µM: BT-474, 0.015 μM; for cytotoxicity at 0.045 µM: BT-474, 0.045 μM; for cytotoxicity at 0.13 µM: BT-474, 0.13 μM; for cytotoxicity at 0.41 µM: BT-474, 0.41 μM; for cytotoxicity at 1.23 µM: BT-474, 1.23 μM; for cytotoxicity at 3.7 µM: BT-474, 3.7 μM; for cytotoxicity at 11.11 µM: BT-474, 11.11 μM; for cytotoxicity at 33.33 µM: BT-474, 33.33 μM; for cytotoxicity at 100 µM: BT-474, 100 μM
Summary of the method: as §1

IC50 [1]	IC50 [2]	IC50 [3]	Structure (SMILES)	cytotoxicity at 72 h, 0.005 µM [4]	cytotoxicity at 72 h, 0.015 µM [4]	cytotoxicity at 72 h, 0.045 µM [4]	cytotoxicity at 72 h, 0.13 µM [4]	cytotoxicity at 72 h, 0.41 µM [4]	cytotoxicity at 72 h, 1.23 µM [4]	cytotoxicity at 72 h, 3.7 µM [4]	cytotoxicity at 72 h, 11.11 µM [4]	cytotoxicity at 72 h, 33.33 µM [4]	cytotoxicity at 72 h, 100 µM [4]	cytotoxicity at 0.005 µM [5]	cytotoxicity at 0.015 µM [5]	cytotoxicity at 0.045 µM [5]	cytotoxicity at 0.13 µM [5]	cytotoxicity at 0.41 µM [5]	cytotoxicity at 1.23 µM [5]	cytotoxicity at 3.7 µM [5]	also measured
73.3 ± 7.05 µM	122 ± 18.6 µM	134 ± 12.9 µM	O=C(NS(=O)(=O)c1nnc(N=Cc2ccccc2)s1)c1ccccc1 [Compound 9a, N-{[5-(Benzylidenamino)-1,3,4-thiadiazol-2-yl]sulphonyl} benzamide]	37.4%	38.2%	39.8%	40.7%	42.4%	43.1%	44.2%	45.6%	46.2%	50.6%	35.3%	35.8%	36.4%	37%	38%	39%	40.2%	cytotoxicity at 11.11 µM [5]: 40.6%; cytotoxicity at 33.33 µM [5]: 41.5%; cytotoxicity at 100 µM [5]: 66%; melting point: 185 to 187 °C
55.6 ± 6.98 µM	164 ± 14.6 µM	63.6 ± 8.35 µM	COc1ccc(C=Nc2nnc(S(=O)(=O)NC(=O)c3ccccc3)s2)cc1 [Compound 9d, N-({5-[(4-Methoxybenzylidene)amino]-1,3,4-thiadiazol-2-yl}sulfonyl)benzamide]	30.6%	32.6%	33.9%	34.8%	34.8%	35.5%	35.8%	36.3%	38.2%	38.9%	33.3%	33.4%	33.5%	34%	34.2%	36.8%	36.8%	cytotoxicity at 11.11 µM [5]: 37.4%; cytotoxicity at 33.33 µM [5]: 38%; cytotoxicity at 100 µM [5]: 39.4%; melting point: 215 to 217 °C
207 ± 17.4 µM	204 ± 20.1 µM	80.6 ± 11.4 µM	O=C(NS(=O)(=O)c1nnc(N=Cc2ccccc2O)s1)c1ccccc1 [Compound 9f, N-({5-[(2-Hydroxybenzylidene)amino]-1,3,4-thiadiazol-2-yl}sulfonyl)benzamide]	32.5%	33.1%	34%	35.1%	36.4%	37.1%	37.4%	37.9%	39.8%	42.8%	30.6%	32.6%	33.9%	34.8%	34.8%	35.5%	35.8%	cytotoxicity at 11.11 µM [5]: 36.1%; cytotoxicity at 33.33 µM [5]: 38.2%; cytotoxicity at 100 µM [5]: 38.7%; melting point: 220 to 222 °C
